According to US20100009934A1, “BETA ADRENERGIC RECEPTOR AGONISTS FOR THE TREATMENT OF B-CELL PROLIFERATIVE DISORDERS” (CombinatoRx, Incorporated, priority 2008, published 2010):
Where “and” joins values, the source holds several entries; their conditions need not be identical. Identical values can stand only once. Like-named read-outs stand apart in the source and are kept apart here.

Experiments:
[1] = tested on: Human Multiple Myeloma Cells (MM.1S); assay: Antiproliferative activity on MM.1S in the presence of beta adrenergic receptor antagonist (CGP 12177A or ICI 118,551); format: cell-based
[2] = tested on: Human Multiple Myeloma Cells (MM.1S); assay: Anti-proliferation assay (ATPLite, 72 hours), MM.1S
beta 3 vs. beta 2 = details: Mol Phar 1994 46(2):357-63; cited from earlier work
[3] = tested on: Human Multiple Myeloma Cells (EJM); assay: Anti-proliferation assay (ATPLite, 72 hours), EJM; details: for Antiproliferative Activity: DEX μM r7-r15: 2.03, 0.675, 0.225, 0.075, 0.025, 0.00834, 0.00278, 0.00093, 0
[4] = tested on: Human Multiple Myeloma Cells (MM.1S)
RPMI-8226 cells = details: soft agar, three weeks
Protocol: The effect of BAR agonists on cells grown in soft agar was also determined. This approach allows the measurement of long term cell viability after single agent or combination treatment. […] Cells were washed and plated in soft agar. After three weeks colonies were counted to determine cell viability.

MM.1S cells = assay: Annexin V / propidium iodide apoptosis assay, MM.1S; format: cell-based, human; details: for induction of MM.1S cell apoptosis: 72 hours (FIG. 2)
Protocol: Effects on cell viability were determined by measuring the percent of cells that were annexin V positive (an early marker for apoptosis) and by measuring the percent of cells propidium iodide (PI) positive, an indicator that cellular membranes are compromised and a marker of cell death.

[5] = tested on: RPMI-8226 multiple myeloma (MM) xenograft; details: Day 19; 10 mg/kg salmeterol, 0.5 mg/kg bortezomib, or both
Protocol: Dexamethasone was administered by intraperitoneal (IP) injection daily for thirty-six treatments (QD×36). Bortezomib was injected intravenously (IV) every third day for six treatments (Q3D×6).
Group 1—Vehicle (90% PBS+10% EtOH)
Significant endpoints included mean tumor growth inhibition (TGI) or regression, animal weight loss, and potential toxicity. […] Animals were implanted with cancer cells harvested from tissue culture and allowed to establish tumors in SCID mice. Treatment initiated when the mean tumor volume reached 137 mm^3 in size.

[6] = tested on: multiple myeloma tumor cells from patients; assay: MTT cell viability assay, multiple myeloma patient tumor cells; details: Homo sapiens, 48 h, read-out: tumor cell viability
Excerpt: Tumor cells were obtained via bone marrow aspirates and affinity selected using CD138-linked magnetic beads.

[7] = tested on: Human Multiple Myeloma Cells (ANBL-6); assay: Anti-proliferation assay (ATPLite, 72 hours), ANBL-6
[8] = tested on: Human Multiple Myeloma Cells (MM.1S) cultured in the presence of BAR agonist for one month; assay: Antiproliferative activity on MM.1S cultured one month in the presence of salmeterol or salbutamol; format: cell-based; details: MM.1S cultured in Salbutamol for one month (final 150 nM), DEX (μM): 2.0, 0.666, 0.23, 0.074, 0.024, 0.0082, 0.00274, 0.0009, 0
Excerpt: A recurrent problem in cancer therapy is that prolonged exposure of tumor cells to chemotherapeutic agents can generate cells resistant to agents that initially have antiproliferative or cell killing activity. […] Cells cultured for one month in the presence of BAR agonist were washed to remove drug and put into 384 well plates for 9×9 dose matrix combination screening with BAR agonists and dexamethasone.

[9] = tested on: human multiple myeloma cells (MM.1R); assay: Antiproliferative activity of salbutamol on MM.1R after transfection of siRNA; format: cell-based; details: 72 hours (FIG. 4)
Protocol: Specific gene silencing was greater than 60% as determined by real time PCR analysis 48 hours post-transfection. At 48 hours post-transfection, cells were exposed to the beta 2 receptor agonist salbutamol and incubated an additional 72 hours, and the compounds were assayed for antiproliferative activity.

[10] = Homo sapiens, MM1.S, read-out: percent inhibition of cell proliferation
[11] = Homo sapiens, Multiple myeloma cell, 72 h, read-out: percent inhibition of cell proliferation
[12] = Homo sapiens, MM1.S, 72 h, read-out: percent inhibition of cell proliferation
[13] = Homo sapiens, ANBL-6, 72 h, read-out: percent inhibition (% I)
[14] = Homo sapiens, MM1.S, 72 h, read-out: percent inhibition (% I)
[15] = Homo sapiens, MM1.S, read-out: Antiproliferative Activity (inhibition of proliferation)
[16] = Homo sapiens, ANBL-6, read-out: percent inhibition of cell proliferation

Compound: CC(Cc1ccc(OCC(=O)O)cc1)NCC(O)c1cccc(Cl)c1 (stereo not drawn) [BRL37344, (4-(2-((2-(3-chlorophenyl)-2-hydroxyethyl)amino)propyl)phenoxy)acetic acid]
- inhibition at 0.01 µM [1, 10]: -8.2%
- inhibition at 0.02 µM [1, 10]: -12%
- inhibition at 0.01 µM [2, 10]: 10%
- inhibition at 0.02 µM [2, 10]: 10%
- single agent antiproliferative activity ([2]; MM.1S (Table 45)): not very active
- selectivity for beta 3 vs. beta 2 (beta 3 vs. beta 2): 76 fold

Compound: CC(C)(C)NCC(O)c1cc(Cl)c(N)c(Cl)c1 (stereo not drawn) [Clenbuterol]
- inhibition at 0.0006 µM [2, 10]: 66%
- inhibition at 0.01 µM [2, 10]: 78%
- inhibition at […] [2, 10]: 61% and 62% and 57%

Compound: CC(CCc1ccc(O)cc1)NCCc1ccc(O)c(O)c1 (stereo not drawn) [Dobutamine, dobutamine]
- inhibition at 0.0316 µM [3, 11]: -2.3%
- inhibition at 0.506 µM [3, 11]: 21.5%
- inhibition at […] ([1]; Homo sapiens, MM1.S, in the presence of 0.91 μM ICI, 118,551, Dobutamine 0.063 μM, Dexamethasone (μM) by row: r8 0.15, r9 0.076, r10 0.038, r11 0.019, r12 0.0095, r13 0, read-out: percent inhibition of cell proliferation): 2.2%
- inhibition at […] ([1]; Homo sapiens, MM1.S, in the presence of 0.91 μM ICI, 118,551, Dobutamine 0.13 μM, Dexamethasone (μM) by row: r8 0.15, r9 0.076, r10 0.038, r11 0.019, r12 0.0095, r13 0, read-out: percent inhibition of cell proliferation): 2%
- inhibition at […] ([1]; Homo sapiens, MM1.S, in the presence of 0.91 μM ICI, 118,551, Dobutamine 0.25 μM, Dexamethasone (μM) by row: r8 0.15, r9 0.076, r10 0.038, r11 0.019, r12 0.0095, r13 0, read-out: percent inhibition of cell proliferation): -5.4%
- inhibition at […] ([1]; Homo sapiens, MM1.S, in the presence of 0.91 μM ICI, 118,551, Dobutamine 0.51 μM, Dexamethasone (μM) by row: r8 0.15, r9 0.076, r10 0.038, r11 0.019, r12 0.0095, r13 0, read-out: percent inhibition of cell proliferation): -2.8%
- inhibition at 1 µM ([1]; Homo sapiens, MM1.S, in the presence of 0.91 μM ICI, 118,551, Dobutamine 1.0 μM, Dexamethasone (μM) by row: r8 0.15, r9 0.076, r10 0.038, r11 0.019, r12 0.0095, r13 0, read-out: percent inhibition of cell proliferation): -1.8%
- inhibition at 0.0316 µM [2, 12]: -2.04%
- inhibition at 0.506 µM [2, 12]: 22.9%
- inhibition at 1 µM [2, 10]: 28%

Compound: Cc1ccc(OCC(O)C(C)NC(C)C)c2c1CCC2 (stereo not drawn) [ICI, 118,551]
- percent inhibition of cell proliferation ([1]; in the presence of […] ICI, 118,551, Dobutamine 0 μM, Dexamethasone (μM) by row: r8 0.15, r9 0.076, r10 0.038, r11 0.019, r12 0.0095, r13 0 (ICI alone)): 1.9%

Compound: CCC(NC(C)C)C(O)c1ccc(O)c(O)c1 (stereo not drawn) [Isoetharine]
- Antiproliferative Activity ([3]; Isoetharine 0.000158 μM): 7.35
- Antiproliferative Activity ([3]; Isoetharine 0.000316 μM): 7.35
- Antiproliferative Activity ([3]; Isoetharine 0.00506 μM): 29

Compound: CC(C)C[C@H](NC(=O)[C@H](Cc1ccccc1)NC(=O)c1cnccn1)B(O)O [bortezomib]
- inhibition [4]: 30.8% and 19.6%
- colony number per 10,000 cells plated (RPMI-8226 cells; 100 nM bortezomib for 5 hours): 39 colonies
- colony number per 10,000 cells plated (RPMI-8226 cells; 200 nM bortezomib for 5 hours): 7 colonies
- cells annexin V positive (MM.1S cells; 2 nM bortezomib, 72 hours (FIG. 3)): 50%
- tumor growth inhibition (TGI) [5]: 38%
- viability at 0.002 µM [6]: 80%

Compound: COc1ccc(CC(C)NCC(O)c2ccc(O)c(NC=O)c2)cc1 (stereo not drawn) [formoterol]
- inhibition at 2.53 pM [7, 13]: 23.3%
- inhibition at 5.06 pM [7, 13]: 26.7%
- inhibition at 10.1 pM [7, 13]: 30%
- inhibition at 20.2 pM [7, 13]: 39.9%
- inhibition at 40.5 pM [7, 13]: 48.8%
- inhibition at 81 pM [7, 13]: 55.4%
- inhibition at 2.53 pM [2, 14]: 18.9%
- inhibition at 5.06 pM [2, 14]: 23.8%
- inhibition at 10.1 pM [2, 14]: 40.8%
- inhibition at 20.2 pM [2, 14]: 52.7%
- inhibition at 40.5 pM [2, 14]: 54.7%
- inhibition at 81 pM [2, 14]: 65.9%
- inhibition at 2.53 pM [2, 15]: 22.4%
- inhibition at 5.06 pM [2, 15]: 36.2%
- inhibition at 10.1 pM [2, 15]: 40.7%
- inhibition at 20.2 pM [2, 15]: 51%
- inhibition at 40.5 pM [2, 15]: 57.5%
- inhibition at 81 pM [2, 15]: 65.7%
- inhibition at 20.2 pM ([2]; Homo sapiens, MM1.S, read-out: inhibition of proliferation, single agent): 51%

Compound: Nc1cccc2c1CN(C1CCC(=O)NC1=O)C2=O (stereo not drawn) [lenalidomide]
- Antiproliferative Activity ([7]; Salmeterol 0 μM (LEN alone), LEN μM r7-r15: 4.04, 2.02, 1.01, 0.505, 0.253, 0.126, 0.0632, 0.0316, 0): 53.5 and 51.8 and 52.5 and 44.8 and 34.3 and 61.9 and 52.8 and 54.3
- induction of MM.1S cell apoptosis (MM.1S cells; 1 μM lenalidomide): negligible effects

Compound: CC(C)(C)NCC(O)c1ccc(O)c(CO)c1 (stereo not drawn) [salbutamol]
- percent inhibition of cell proliferation ([8]; Salbutamol 0.00375 μM): −5.8%
- percent inhibition of cell proliferation ([8]; Salbutamol 0.00625 μM): 4.6%
- percent inhibition of cell proliferation ([8]; Salbutamol 0.0125 μM): −1.9%
- percent inhibition of cell proliferation ([8]; Salbutamol 0.05 μM): 1.5%
- percent inhibition of cell proliferation ([8]; Salbutamol 0.1 μM): 11%
- percent inhibition of cell proliferation ([8]; Salbutamol 0.2 μM): 6.8%
- inhibition of proliferation ([9]; MM.1R transfected with A2A receptor siRNA or control siRNA): 65-68%
- Antiproliferative Activity ([9]; MM.1R transfected with two different siRNA targeting the beta 2 receptor): 39-45%
- inhibition at 9.1 pM [2, 10]: 10%
- inhibition at 0.00375 µM [2, 10]: 15%
- inhibition at 0.00625 µM [2, 10]: 30%
- inhibition at 0.0125 µM [2, 10]: 39%
- inhibition at 0.05 µM [2, 10]: 51%
- inhibition at 0.1 µM [2, 10]: 55%
- inhibition at 0.2 µM [2, 10]: 58%

Compound: COc1cc2c(cc1OC)-c1cc(=Nc3c(C)cc(C)cc3C)n(C)c(=O)n1CC2 [trequinsin, 2,3,6,7-tetrahydro-9,10-dimethoxy-3-methyl-2-((2,4,6-trimethylphenyl)imino)-4H-pyrimido(6,1-a)isoquinolin-4-one]
- inhibition at 0.00464 µM [7, 16]: 2.91%
- inhibition at 0.125 µM [7, 16]: 4.39%
- inhibition at 0.375 µM [7, 16]: 7.82%
- induction of MM.1S cell apoptosis (MM.1S cells; 2 μM trequinsin): negligible effects
